Measurements published in patent US20250332176A1, “TREATMENT FOR FIBROSIS AND INHIBITION OF FIBROSIS” (GALMED RESEARCH AND DEVELOPMENT LTD, priority 2022, published 2025).
“And” between values parts separate entries of the source, which are not always exact repeats. Identical values can stand only once. “Also recorded” adds a separate entry of the source. Like-named read-outs stand apart in the source and are kept apart here.

What was measured:
[1] = test system: Wistar rats; test: Thioacetamide (TAA)-induced fibrosis, model for hepatic cirrhosis; format: in vivo; conditions: 5 mg/kg, co-administered with TAA during 10 weeks
Experimental: Liver fibrosis was induced in Wistar rats by intraperitoneal injections of TAA (20 mg/100 gr body weight) twice per week during 10 weeks. I.p. application of TAA results in hepatic centrolobular necrosis, elevated transaminase activity and robust liver fibrosis. Treatment groups further included co-administration of Aramchol™ (1 or 5 mg/kg orally) or obaticholic acid (OCA, 5 mg/kg). A control group of saline-treated rats (in the absence of TAA administration) was further included. Rats were then sacrificed, and livers were observed macroscopically for signs of cirrhosis and necrotic lesions, and microscopically, following Masson Goldner staining. The fibrosis score, calculated at a scale of 0-4, was determined for each sample, wherein 0 indicates no fibrosis and 4 indicates advanced fibrosis and cirrhosis.

[2] = test system: pts with pre-diabetes or diabetes and biopsy-proven NASH; test: Global phase 2b randomized placebo-controlled ARREST trial, one-year results; format: in vivo, human
Experimental: Overweight/obese pts with pre-diabetes or diabetes and biopsy-proven NASH (with NAS≥4; F<4) were included. Liver biopsy and liver fat measurement by MR spectroscopy (LF-MRS) were performed at baseline and week 52. Both read centrally. The primary endpoint was the absolute change from baseline in LF-MRS (600 mg vs. placebo, PLB; mixed model repeated measures). Key secondary endpoints included: NASH resolution without fibrosis worsening, ≥1 stage fibrosis reduction without NASH worsening and ALT reduction. 247 pts from 11 countries (US, Europe, Latin America) were randomized 2:2:1 to Aramchol™ 400 mg QD (N=101), 600 mg QD (N=98) or PLB (N=48). At baseline: 65% females, mean age 54.4 yrs, BMI 32.7 kg/m2, HbA1c 6.6%±1.0% (mean±SD), LF-MRS 28.5%±11.7% (mean±SD); 60% fibrosis stage 2-3 and NAS 5.12±1.00 (mean±SD). 89% of pts completed the study. The results of the study are summarized in FIGS. 16A-16B to FIGS.-20A-20B.

[3] = Phase 1 single dose plasma exposure in healthy volunteers; format: in vivo, human; conditions: for AUC: human, plasma, oral, AUC=AUCinf
Experimental: (§1) Table 1 summarizes the reported plasma exposure from three studies-single dose Phase I in healthy volunteers (30-900 mg, AUC=AUCinf); Phase II ARAMCHOL™ 003 repeat dose study (AUC on D84 from 100 & 300 mg QD), Phase IIb Cmin on D84 (400 and 600 mg QD).
Biovailability relative to 30 […] has been calculated as (AUC/Dose)/(AUC/30 mg) and is plotted for this group in FIG. 11.

[4] = Phase 2 ARAMCHOL 003 repeat dose plasma exposure in patients; format: in vivo, human; conditions: for AUC/Dose / Relative bioavailability (AUC/Dose normalized to 30 mg HV data) / AUC at 84 day: patients; for AUC/Dose / Relative bioavailability (AUC/Dose normalized to 30 mg HV data): D84; for AUC at 84 day: human, plasma, oral
Experimental: as §1
Exposure in patients is also sub-proportional from 100 to 300 mg. […] This may be due to the use of a tablet formulation in the patient study versus the powder/suspension in healthy volunteers or may simply reflect a high degree of inter-subject variability (typically exposure CV is >50% within a study group).

[5] = Phase 2b steady state trough (Cmin) plasma concentration in patients; format: in vivo, human; conditions: for AUC/Dose / Relative bioavailability (AUC/Dose normalized to 30 mg HV data) / concentration at 84 day / AUC: patients; for AUC/Dose / Relative bioavailability (AUC/Dose normalized to 30 mg HV data) / concentration at 84 day: D84; for concentration at 84 day: read-out: SS Cmin; for AUC: estimated from observed Cmin on D84*24 h
From the text: Blood sample for Aramchol™ trough level will be collected (pre-dose) from patients in Israel at baseline (visit 2) week 4 (visit 4), week 12 (visit 6), week 24 (visit 7), week 40 (visit 9), end of treatment (visit 10) and follow up (visit 11). At selected sites in Mexico, USA and Hong Kong one blood sample will be collected (pre-dose) on visit 4 (up to 10 subjects per country) to test for trough Aramchol™ blood level differences between populations (e.g., African American, Asian, Hispanic).
as §1
The steady state (day 84) Cmin in patients at 400 mg and 600 mg has been measured. […] Again, this may reflect inter-subject variability or a difference in the excipients used in the tablets.

[6] = Modelling and simulation of 300 mg BID and 600 mg QD doses in patients (Phoenix 64, single compartment); set-up: species or system human; conditions: correction for sub-proportional PK
Experimental: Given the sub-proportional exposure generally seen, splitting the same total daily dose into two BID doses is likely to increase plasma AUC. The aim of this analysis was to model this behavior.
The 300 mg data on day 1 and day 84 in patients (Phase 2 ARAMCHOL™ 003) has been modelled in Phoenix 64@ assuming single compartment pharmacokinetics (parameterized by Cl and V) and first order absorption at a rate Ka with a delay, Tlag. The fitted model parameters all have a CV<25% and the predicted concentration data reasonably capture the observed data as shown in FIGS. 13A-13C.
To predict exposure at 600 mg, a correction for sub-proportional PK (lower bioavailability at higher dose) has been made assuming the same non-linearity at observed in healthy volunteers.

## CCCCCCCCCCCCCCCCCCCC(=O)N[C@H]1CC[C@@]2(C)[C@@H](C1)C[C@@H](O)[C@@H]1[C@@H]2C[C@H](O)[C@]2(C)[C@@H]([C@H](C)CCC(=O)O)CC[C@@H]12 [Aramchol™, 3β-arachidylamido-7α, 12α-dihydroxy-5β-cholan-24-oic acid]
[1]
  TAA induced fibrosis: significantly prevented
  development of necrosis and cirrhosis (macroscopic): reduced significantly; also recorded: significantly inhibited
[1]; score scale 0-4
  fibrotic score and collagen distribution in the tissue (Masson Goldner staining): reduced significantly
[2]; 400 mg QD, week 52
  pts progressed to cirrhosis: 7.5%
  pts with ≥5% absolute reduction in liver fat: 37%
[2]; 400 mg QD, week 52, p=0.045
  liver fat by MR spectroscopy (LF-MRS), absolute change from baseline vs PLB: significantly reduced
[2]; 600 mg
  effect on ballooning (improvement ≥1 point; ballooning 0 at end of study): statistically significant effect
[2]; 600 mg QD, week 52
  pts progressed to cirrhosis: 1.3%
[2]; 600 mg QD, week 52, p<0.066
  liver fat by MR spectroscopy (LF-MRS), absolute change from baseline vs PLB: significantly reduced
[2]; 600 mg QD, week 52, vs 5.0% PLB
  pts with NASH resolution without fibrosis worsening: 16.7%
[2]; 600 mg QD, week 52, vs 17.5% PLB (p=0.21)
  pts with ≥1 stage fibrosis reduction without NASH worsening: 29.5%
[2]; 600 mg QD, week 52, vs 24% on PLB (p<0.028)
  pts with ≥5% absolute reduction in liver fat: 47%
[2]; 600 mg QD, 95% CI: 0.99-22.66, p=0.051
  OR for NASH resolution without fibrosis worsening vs PLB: 4.74
[2]; 1-year treatment
  Discontinuation due to adverse events (AE): < 5%
[2]; 1-year treatment, without a difference between arms
  serious AE, pts: 10%
[2]; both doses (400 mg and 600 mg QD), p<0.001, dose response
  ALT vs PLB: significantly reduced
[2]; both doses (400 mg and 600 mg QD), p<0.007, dose response
  HbA1c vs PLB: significantly reduced
[2]; both doses (400 mg and 600 mg QD), p=0.002, dose response
  AST vs PLB: significantly reduced
[2]; one year
  safety and tolerability: excellent safety and tolerability
[3]
  exposure (AUC) of single 900 mg dose higher than single 300 mg dose: 1.35 fold
[3]; 30-900 mg
  decrease in AUC/Dose across the dose range: four-fold
[3]; single dose 30 mg
  AUC: 11900 ng·h/mL
  AUC/Dose: 397 ng/mL · h/(mg/kg)
  Relative bioavailability (AUC/Dose normalized to 30 mg HV data): 1
[3]; single dose 100 mg
  AUC: 25700 ng·h/mL
  AUC/Dose: 257 ng/mL · h/(mg/kg)
  Relative bioavailability (AUC/Dose normalized to 30 mg HV data): 0.65
[3]; single dose 300 mg
  AUC: 64300 ng·h/mL
  AUC/Dose: 214 ng/mL · h/(mg/kg)
  Relative bioavailability (AUC/Dose normalized to 30 mg HV data): 0.53 and 0.54
[3]; single dose 900 mg
  AUC: 86900 ng·h/mL
  AUC/Dose: 97 ng/mL · h/(mg/kg)
  Relative bioavailability (AUC/Dose normalized to 30 mg HV data): 0.24
[4]; 100 mg QD repeat dose
  AUC/Dose: 197 ng/mL · h/(mg/kg)
  Relative bioavailability (AUC/Dose normalized to 30 mg HV data): 0.50
[4]; 300 mg
  steady-state AUC in patients lower than AUCinf from a single dose in healthy volunteers: approximately 2 fold
[4]; 300 mg QD repeat dose
  AUC/Dose: 110 ng/mL · h/(mg/kg)
  Relative bioavailability (AUC/Dose normalized to 30 mg HV data): 0.28
[4]; 100 mg QD repeat dose, AUC on D84
  AUC at 84 day: 19700 ng·h/mL
[4]; 300 mg QD repeat dose, AUC on D84 (steady-state)
  AUC at 84 day: 33000 ng·h/mL
[4]; typically, inter-subject variability
  exposure CV within a study group: > 50%
[5]; 400 mg QD
  AUC/Dose: 172 ng/mL · h/(mg/kg)
  Relative bioavailability (AUC/Dose normalized to 30 mg HV data): 0.43
[5]; 600 mg QD
  AUC/Dose: 144 ng/mL · h/(mg/kg)
  Relative bioavailability (AUC/Dose normalized to 30 mg HV data): 0.36
[5]; human, plasma, oral
  half-life: > 1440 min
[5]; human, plasma, oral, 400 mg QD
  concentration at 84 day: 2860 ng/mL
  AUC: 68600 ng·h/mL
[5]; human, plasma, oral, 600 mg QD
  concentration at 84 day: 3610 ng/mL
  AUC: 86700 ng·h/mL
[6]
  relative bioavailability at 600 mg compared to 300 mg: approximately 0.75 fold
